The experiment deals with T1, human TLR9 (Homo sapiens, UniProt Q9NR96).
T1 sequence (Q9NR96 26-1032): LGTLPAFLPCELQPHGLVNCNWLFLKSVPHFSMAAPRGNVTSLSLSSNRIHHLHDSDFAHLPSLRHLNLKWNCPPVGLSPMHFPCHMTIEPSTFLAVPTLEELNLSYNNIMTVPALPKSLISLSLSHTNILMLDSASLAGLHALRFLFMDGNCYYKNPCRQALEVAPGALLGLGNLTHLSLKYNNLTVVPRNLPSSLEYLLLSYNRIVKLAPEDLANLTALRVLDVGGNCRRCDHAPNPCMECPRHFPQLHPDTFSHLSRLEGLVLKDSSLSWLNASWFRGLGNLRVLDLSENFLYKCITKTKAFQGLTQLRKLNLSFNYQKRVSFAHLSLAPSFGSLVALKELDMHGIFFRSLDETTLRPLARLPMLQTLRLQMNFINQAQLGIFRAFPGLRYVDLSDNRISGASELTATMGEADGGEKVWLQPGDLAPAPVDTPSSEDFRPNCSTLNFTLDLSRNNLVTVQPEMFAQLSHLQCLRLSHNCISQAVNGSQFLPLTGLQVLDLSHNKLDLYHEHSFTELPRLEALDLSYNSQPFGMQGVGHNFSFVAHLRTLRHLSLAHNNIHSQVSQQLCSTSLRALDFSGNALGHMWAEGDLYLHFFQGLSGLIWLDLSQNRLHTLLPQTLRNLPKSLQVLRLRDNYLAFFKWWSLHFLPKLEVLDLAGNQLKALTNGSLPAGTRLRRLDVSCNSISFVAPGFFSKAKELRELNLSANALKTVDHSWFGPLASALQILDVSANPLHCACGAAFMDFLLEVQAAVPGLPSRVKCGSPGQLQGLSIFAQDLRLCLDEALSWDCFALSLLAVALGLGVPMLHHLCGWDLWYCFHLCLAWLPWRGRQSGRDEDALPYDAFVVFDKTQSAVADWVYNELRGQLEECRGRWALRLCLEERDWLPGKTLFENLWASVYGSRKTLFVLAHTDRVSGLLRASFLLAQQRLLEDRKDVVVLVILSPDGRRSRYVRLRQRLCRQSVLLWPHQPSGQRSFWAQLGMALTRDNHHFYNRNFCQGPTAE
The experiment is described as follows: HEK293-Blue-hTLR-9 cells assay (SEAP reporter, ODN2006 stimulation). The class given is cell-based. The note with it: HEK293-Blue-hTLR9 cells, ODN2006, 20 hrs. How it is done:
The following tests were carried out in order to determine the activity of the compounds of this invention in HEK293-Blue-hTLR-7/8/9 cells assay.
HEK293-Blue-hTLR-9 Cells Assay:
A stable HEK293-Blue-hTLR-9 cell line was purchased from InvivoGen (Cat. #: hkb-htlr9, San Diego, Calif., USA). These cells were originally designed for studying the stimulation of human TLR9 by monitoring the activation of NF-κB. A SEAP (secreted embryonic alkaline phosphatase) reporter gene was placed under the control of the IFN-β minimal promoter fused to five NF-κB and AP-1-binding sites. The SEAP was induced by activating NF-κB and AP-1 via stimulating HEK-Blue hTLR9 cells with TLR9 ligands. Therefore the reporter expression was declined by TLR9 antagonist under the stimulation of a ligand, such as ODN2006 (Cat. #: tlr1-2006-1, Invivogen, San Diego, Calif., USA), for incubation of 20 hrs. The cell culture supernatant SEAP reporter activity was determined using QUANTI-Blue™ kit (Cat. #: rep-qb1, Invivogen, San Diego, Calif., USA) at a wavelength of 640 nm, a detection medium that turns purple or blue in the presence of alkaline phosphatase.
HEK293-Blue-hTLR9 cells were incubated at a density of 250,000˜450,000 cells/mL in a volume of 170 μL in a 96-well plate in Dulbecco's Modified Eagle's medium (DMEM) containing 4.5 g/L glucose, 50 U/mL penicillin, […], 2 mM L-glutamine, 10% (v/v) heat-inactivated fetal bovine serum with addition of 20 μL test compound in a serial dilution in the presence of final DMSO at 1% and 10 μL of 20 uM ODN2006 in above DMEM, perform incubation under 37° C. in a CO2 incubator for 20 hrs. Then 20 μL of the supernatant from each well was incubated with 180 μL Quanti-blue substrate solution at 37° C. for 2 hrs and the absorbance was read at 620˜655 nm using a spectrophotometer. The signalling pathway that TLR9 activation leads to downstream NF-κB activation has been widely accepted, and therefore similar reporter assay was modified for evaluating TLR9 antagonist.
As usually defined, the IC50 is the concentration needed to halve the response being measured. Compound `C[C@H]1C[C@@H](N2CCc3cc(N4CCNCC4)ccc3C2)CN(c2ccc(C#N)c3ncccc23)C1` (relative stereo) [Example 24, 5-[cis-3-methyl-5-(6-piperazin-1-yl-3,4-dihydro-1H-isoquinolin-2-yl)-1-piperidyl]quinoline-8-carbonitrile] displayed an IC50 of 70 nM.
As for `C[C@H]1C[C@@H](NCc2ccc(N3CCNCC3)cc2)CN(c2ccc(C#N)c3nccnc23)C1` [Example 3, 8-[(3S,5R)-3-methyl-5-[(4-piperazin-1-ylphenyl)methylamino]-1-piperidyl]quinoxaline-5-carbonitrile], 77 nM corresponded to half-maximal inhibition (IC50).
`C[C@H]1C[C@@H](NCc2ccc(N3CCNCC3)cc2F)CN(c2ccc(C#N)c3ncccc23)C1` [Example 4, 5-[(3R,58)-3-[(2-fluoro-4-piperazin-1-yl-phenyl)methylamino]-5-methyl-1-piperidyl]quinoline-8-carbonitrile] registered a 50% inhibitory concentration (IC50) of 94 nM.
`C[C@H]1C[C@@H](NCc2ccc(N3CCNCC3)cn2)CN(c2ccc(C#N)c3ncccc23)C1` [Example 5, 5-[(3S,5R)-3-methyl-5-[(5-piperazin-1-yl-2-pyridyl)methylamino]-1-piperidyl]quinoline-8-carbonitrile] came in with a half-maximal inhibitory concentration (IC50) of 68 nM.
For the compound `C[C@H]1C[C@@H](NCc2cccc(N3CCN(C)CC3)c2)CN(c2ccc(C#N)c3ncccc23)C1` [Example 6, 5-[(3S,5R)-3-methyl-5-[[3-(4-methylpiperazin-1-yl)phenyl]methylamino]-1-piperidyl]quinoline-8-carbonitrile], the IC50 amounted to 70 nM.
On to `C[C@H]1C[C@@H](NCc2ccc(N3CCN(C)CC3)cc2)CN(c2ccc(C#N)c3ncccc23)C1` [Example 7, 5-[(3S,5R)-3-methyl-5-[[4-(4-methylpiperazin-1-yl)phenyl]methylamino]-1-piperidyl]quinoline-8-carbonitrile], for which the IC50 came out at 69 nM.
Take `C[C@H]1C[C@@H](NCc2cccc(N3CCNCC3)c2)CN(c2ccc(C#N)c3ncccc23)C1` [Example 8, 5-[(3S,5R)-3-methyl-5-[(3-piperazin-1-ylphenyl)methylamino]-1-piperidyl]quinoline-8-carbonitrile]: it took 88 nM to reach half-maximal inhibition (IC50).
Compound `C[C@H]1C[C@@H](N(C)Cc2ccc(N3CCNCC3)cc2)CN(c2ccc(C#N)c3ncccc23)C1` [Example 9, 5-[(3S,5R)-3-methyl-5-[methyl-[(4-piperazin-1-ylphenyl)methyl]amino]-1-piperidyl]quinoline-8-carbonitrile] returned an IC50 of 95 nM.
The compound `C[C@H]1C[C@@H](NCc2ccc3c(c2)CCNC3)CN(c2ccc(C#N)c3ncccc23)C1` [Example 11, 5-[(3S,5R)-3-methyl-5-(1,2,3,4-tetrahydroisoquinolin-6-ylmethylamino)-1-piperidyl]quinoline-8-carbonitrile] gave an IC50 of 82 nM.
`C[C@H]1C[C@@H](NCc2ccc(N3CCC(N)C3)cc2)CN(c2ccc(C#N)c3ncccc23)C1` (stereo partly drawn) [Example 13, 5-[(3R,5S)-3-[[4-(3-aminopyrrolidin-1-yl)phenyl]methylamino]-5-methyl-1-piperidyl]quinoline-8-carbonitrile] came in with an IC50 of 163 nM.
Take `Cc1cc(-c2ccc(CN[C@@H]3C[C@H](C)CN(c4ccc(C#N)c5ncccc45)C3)cc2)cc(C)n1` [Example 15, 5-[(3R,5S)-3-[[4-(2,6-dimethyl-4-pyridyl)phenyl]methylamino]-5-methyl-1-piperidyl]quinoline-8-carbonitrile]: the IC50 worked out at 126 nM.
`C[C@H]1C[C@@H](NCc2cnc(N3CCN(C)CC3)nc2)CN(c2ccc(C#N)c3ncccc23)C1` [Example 16, 5-[(3S,5R)-3-methyl-5-[[2-(4-methylpiperazin-1-yl)pyrimidin-5-yl]methylamino]-1-piperidyl]quinoline-8-carbonitrile] gave an IC50 of 77 nM.
On to `C[C@H]1C[C@@H](NCc2ccc(N3CCN(C)CC3)cn2)CN(c2ccc(C#N)c3ncsc23)C1` [Example 18, 7-[(3S,5R)-3-methyl-5-[[5-(4-methylpiperazin-1-yl)-2-pyridyl]methylamino]-1-piperidyl]-1,3-benzothiazole-4-carbonitrile], for which the IC50 came to 116 nM.
On to `C[C@H]1C[C@@H](NCc2ccc(N3CCNCC3)cc2)CN(c2ccc(Cl)c3ncccc23)C1` [Example 22, (3R,5S)-1-(8-chloro-5-quinolyl)-5-methyl-N-[(4-piperazin-1-ylphenyl)methyl]piperidin-3-amine], for which the IC50 was found to be 183 nM.
Regarding `C[C@H]1C[C@@H](NCc2ncc(N3CCNCC3)cn2)CN(c2ccc(C#N)c3ncccc23)C1` [Example 25, 5-[(3S,5R)-3-methyl-5-[(5-piperazin-1-ylpyrimidin-2-yl)methylamino]-1-piperidyl]quinoline-8-carbonitrile], half-maximal inhibition (IC50) was put at 61 nM.
In turn, `CC(N[C@@H]1C[C@H](C)CN(c2ccc(C#N)c3ncccc23)C1)c1ccc(N2CCNCC2)cc1` (stereo partly drawn) [Example 26, 5-[(3S,5R)-3-methyl-5-[1-(4-piperazin-1-ylphenyl)ethylamino]-1-piperidyl]quinoline-8-carbonitrile] came in with an IC50 of 55 nM.
Regarding `C[C@H]1C[C@@H](NCc2cnc(N3CCN[C@H](C)C3)nc2)CN(c2ccc(C#N)c3ncccc23)C1` [Example 28, 5-[(3S,5R)-3-methyl-5-[[2-[(3R)-3-methylpiperazin-1-yl]pyrimidin-5-yl]methylamino]-1-piperidyl]quinoline-8-carbonitrile], the IC50 stood at 48 nM.
On to `C[C@H]1C[C@@H](NCc2cnc(N3CCN[C@@H](C)C3)nc2)CN(c2ccc(C#N)c3ncccc23)C1` [Example 29, 5-[(3S,5R)-3-methyl-5-[[2-[(3S)-3-methylpiperazin-1-yl]pyrimidin-5-yl]methylamino]-1-piperidyl]quinoline-8-carbonitrile], for which the IC50 is 32 nM.
The compound `C[C@H]1C[C@@H](NCc2ccc3c(n2)CCNC3)CN(c2ccc(C#N)c3ncccc23)C1` [Example 30, 5-[(3S,5R)-3-methyl-5-(5,6,7,8-tetrahydro-1,6-naphthyridin-2-ylmethylamino)-1-piperidyl]quinoline-8-carbonitrile] displayed an IC50 of 33 nM.
`C[C@H]1C[C@@H](NCc2cnc(N3CCNCC3)cn2)CN(c2ccc(C#N)c3ncccc23)C1` [Example 31, 5-[(3S,5R)-3-methyl-5-[(5-piperazin-1-ylpyrazin-2-yl)methylamino]-1-piperidyl]quinoline-8-carbonitrile] showed an IC50 of 47 nM.

The values are drawn from US20220395496A1 (Hoffmann-La Roche Inc., priority 2019, published 2022).
